Laboratory results as given in patent publication US8791267B2, “Biaryl PDE4 inhibitors for treating inflammatory, cardiovascular and CNS disorders” (Decode Genetics EHF, priority 2007, dated 2014).

Tests used:
PDE4 = PDE4 (Homo sapiens, UniProt Q08499); test: In-vitro assay for PDE4 enzymes, real-time enzyme-coupled spectrophotometric assay (Table 9); type: biochemical; details: human PDE4D; activity class, Table 9; read-out: hPDE4D
PDE4B = PDE4B (Homo sapiens, UniProt Q07343); test: In-vitro assay for PDE4 enzymes, real-time enzyme-coupled spectrophotometric assay, PDE4B Activity (Table 10); type: biochemical; details: human PDE4B (hPDE4B), enzyme-coupled spectrophotometric assay; read-out: PDE4B Activity, hPDE4B
Chain of PDE4B (Q07343 whole entry): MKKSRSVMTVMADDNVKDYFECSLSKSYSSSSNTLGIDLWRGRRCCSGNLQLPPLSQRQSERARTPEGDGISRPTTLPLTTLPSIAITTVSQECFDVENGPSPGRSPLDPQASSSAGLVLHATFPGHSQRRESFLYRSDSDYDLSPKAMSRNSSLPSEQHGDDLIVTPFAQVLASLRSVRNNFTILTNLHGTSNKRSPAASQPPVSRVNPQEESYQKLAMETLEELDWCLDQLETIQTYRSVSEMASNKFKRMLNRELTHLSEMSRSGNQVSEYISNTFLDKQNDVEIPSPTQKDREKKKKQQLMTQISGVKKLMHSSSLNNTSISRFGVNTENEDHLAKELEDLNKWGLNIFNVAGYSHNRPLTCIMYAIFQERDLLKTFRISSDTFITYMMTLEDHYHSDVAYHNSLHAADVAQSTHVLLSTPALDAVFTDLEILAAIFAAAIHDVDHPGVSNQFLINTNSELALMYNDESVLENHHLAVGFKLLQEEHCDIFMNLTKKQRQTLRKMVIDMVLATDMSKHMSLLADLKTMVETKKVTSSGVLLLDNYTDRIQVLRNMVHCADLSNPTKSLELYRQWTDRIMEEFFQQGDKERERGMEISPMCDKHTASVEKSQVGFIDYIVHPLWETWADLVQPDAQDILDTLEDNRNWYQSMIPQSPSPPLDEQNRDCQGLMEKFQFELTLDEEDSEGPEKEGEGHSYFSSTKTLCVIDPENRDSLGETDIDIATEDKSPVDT

Chain of PDE4 (Q08499 whole entry): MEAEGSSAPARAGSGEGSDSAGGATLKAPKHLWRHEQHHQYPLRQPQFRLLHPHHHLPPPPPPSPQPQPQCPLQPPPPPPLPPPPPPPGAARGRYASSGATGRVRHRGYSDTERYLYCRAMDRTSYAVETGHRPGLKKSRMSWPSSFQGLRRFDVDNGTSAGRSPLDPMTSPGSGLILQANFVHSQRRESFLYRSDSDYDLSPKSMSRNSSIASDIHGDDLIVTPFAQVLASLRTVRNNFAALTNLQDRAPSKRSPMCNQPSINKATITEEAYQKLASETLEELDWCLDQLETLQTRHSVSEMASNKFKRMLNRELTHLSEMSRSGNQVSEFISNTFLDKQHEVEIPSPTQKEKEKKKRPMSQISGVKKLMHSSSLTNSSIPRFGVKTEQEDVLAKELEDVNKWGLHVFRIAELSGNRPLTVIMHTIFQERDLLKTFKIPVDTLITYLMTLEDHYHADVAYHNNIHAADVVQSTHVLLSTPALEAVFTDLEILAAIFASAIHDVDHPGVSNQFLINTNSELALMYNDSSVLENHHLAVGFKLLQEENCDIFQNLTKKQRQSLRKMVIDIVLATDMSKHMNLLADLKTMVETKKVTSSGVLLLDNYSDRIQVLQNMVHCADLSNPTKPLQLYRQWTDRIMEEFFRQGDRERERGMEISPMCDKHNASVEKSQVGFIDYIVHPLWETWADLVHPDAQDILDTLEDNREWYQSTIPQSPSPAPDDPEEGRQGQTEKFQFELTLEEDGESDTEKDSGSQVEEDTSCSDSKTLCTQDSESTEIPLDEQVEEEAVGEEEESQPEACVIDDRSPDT

| SMILES | IC50 (PDE4) [µM] | IC50 (PDE4B) [µM] |
| --- | --- | --- |
| COc1ccc(Cc2ccc(NC(C)=O)cc2)c(F)c1-c1cccc([N+](=O)[O-])c1 [P-107] | < 5 | < 5 |
| COc1ccc(Cc2cccnc2Cl)c(O)c1-c1cccc([N+](=O)[O-])c1 [P-109] | < 5 | < 5 |
| COc1ccc(Cc2ccc(N)nc2)cc1-c1cccc([N+](=O)[O-])c1 [P-111] | < 5 | < 5 |
| COc1ccc(Cc2ccc(NC(=O)OC(C)(C)C)cc2)cc1-c1cccc([N+](=O)[O-])c1 [P-112] | < 5 | < 5 |
| COc1ccc(Cc2ccc(N)cc2)cc1-c1cccc([N+](=O)[O-])c1 [P-113] | < 5 | < 5 |
| COc1ccc(Cc2ccc(NC(C)=O)cc2)cc1-c1cccc([N+](=O)[O-])c1 [P-114] | < 5 | < 5 |
| COc1ccc(Cc2ccnn2C)cc1-c1ccc2c(c1)OC(F)(F)O2 [P-115, 5-[3-(2,2-Difluoro-benzo[1,3]dioxol-5-yl)-4-methoxy-benzyl]-1-methyl-1H-pyrazole] | < 5 | < 5 |
| O=[N+]([O-])c1cccc(-c2c(OC(F)F)ccc(Cc3ccc(F)cc3)c2F)c1 [P-116] | < 5 | < 5 |
| COc1ccc(C(O)c2ccc(F)cc2)cc1-c1cccc(-c2nnco2)c1 (centres unmarked) [P-117, (4-Fluoro-phenyl)-(6-methoxy-3′-[1,3,4]oxadiazol-2-yl-biphenyl-3-yl)-methanol] | < 5 | 21 to 40 |
| COc1ccc(Cc2ccc(F)cc2)cc1-c1cccc(-c2nnco2)c1 [P-118, 2-[5′-(4-Fluoro-benzyl)-2′-methoxy-biphenyl-3-yl]-[1,3,4]oxadiazole] | < 5 | < 5 |
| COc1ccc(Cc2ccc(F)cc2O)cc1-c1cccc([N+](=O)[O-])c1 [P-119, 5-Fluoro-2-(6-methoxy-3′-nitro-biphenyl-3-ylmethyl)-phenol] | < 5 | < 5 |
| COc1ccc(Cc2ccc(NC(=O)CCC(=O)O)cc2)cc1-c1cccc([N+](=O)[O-])c1 [P-122] | < 5 | 5 to 20 |
| COc1ccc(Cc2ccc(NS(C)(=O)=O)cc2)cc1-c1cccc([N+](=O)[O-])c1 [P-123] | < 5 | < 5 |
| COc1ccc(Cc2ccc(OC)c(-c3cccc([N+](=O)[O-])c3)c2O)cn1 [P-125] | < 5 | < 5 |
| COc1ccc(Cc2ccc(Cl)nc2)c(O)c1-c1cccc([N+](=O)[O-])c1 [P-126] | < 5 | < 5 |
| COc1ccc(CC2CCCS2)c(F)c1-c1cccc([N+](=O)[O-])c1 (centres unmarked) [P-127] | < 5 | < 5 |
| COc1ccc(CC2CCCS2)c(F)c1-c1cccc([N+](=O)[O-])c1 (centres unmarked) [P-128, 2-(2-fluoro-6-methoxy-3′-nitro-biphenyl-3-ylmethyl)-tetrahydro-thiophene] | < 5 | < 5 |
| COc1ccc(Cc2ccno2)c(O)c1-c1cccc([N+](=O)[O-])c1 [P-130, 3-isoxazol-5-ylmethyl-6-methoxy-3′-nitro-biphenyl-2-ol] | < 5 | < 5 |
| COc1ccc(CN2C(=O)CC[C@H]2CO)cc1-c1cccc([N+](=O)[O-])c1 [P-131, (S)-5-Hydroxymethyl-1-(6-methoxy-3′-nitro-biphenyl-3-ylmethyl)-pyrrolidin-2-one] | 5 to 20 | 5 to 20 |
| COc1ccc(Cc2ccccc2CN)cc1-c1cccc([N+](=O)[O-])c1 [P-133] | 5 to 20 | 5 to 20 |
| COc1ccc(Cc2ccccc2CO)cc1-c1cccc([N+](=O)[O-])c1 [P-134, [2-(6-Methoxy-3′-nitro-biphenyl-3-ylmethyl)-phenyl]-methanol] | < 5 | 5 to 20 |
| COc1ccc(Cc2ccc(F)c(CO)c2)cc1-c1cccc([N+](=O)[O-])c1 [P-135] | < 5 | < 5 |
| COc1ccc(Cc2ccc(N)cc2)c(F)c1-c1cccc([N+](=O)[O-])c1 [P-136] | < 5 | < 5 |

Now from value to compound:

| IC50 (PDE4) [µM] | IC50 (PDE4B) [µM] | SMILES |
| --- | --- | --- |
| < 5 | < 5 | COc1ccc(Cc2c(C)nn(CCO)c2C)cc1-c1cccc([N+](=O)[O-])c1 [P-088, 2-[4-(6-Methoxy-3′-nitro-biphenyl-3-ylmethyl)-3,5-dimethyl-pyrazol-1-yl]-ethanol] |
| < 5 | < 5 | COc1ccc(Cc2c(C)n[nH]c2C)cc1-c1cccc([N+](=O)[O-])c1 [P-089, 4-(6-Methoxy-3′-nitro-biphenyl-3-ylmethyl)-3,5-dimethyl-1H-pyrazole] |
| < 5 | < 5 | COc1ccc(Cc2c(C)nn(CC(F)(F)F)c2C)cc1-c1cccc([N+](=O)[O-])c1 [P-090, 4-(6-Methoxy-3′-nitro-biphenyl-3-ylmethyl)-3,5-dimethyl-1-(2,2,2-trifluoro-ethyl)-1H-pyrazole] |
| < 5 | 21 to 40 | COc1ccc(COC2=CC(=O)CC2)cc1-c1cccc(C(F)(F)F)c1 [P-091, 3-(6-Methoxy-3′-trifluoromethyl-biphenyl-3-ylmethoxy)-cyclopent-2-enone] |
| < 5 | < 5 | COc1ccc(COC2=CC(=O)CC2)cc1-c1cccc([N+](=O)[O-])c1 [P-092, 3-(6-Methoxy-3′-nitro-biphenyl-3-ylmethoxy)-cyclopent-2-enone] |
| < 5 | 5 to 20 | COc1cc(F)c(C(O)c2ccc(F)cc2)cc1-c1cccc([N+](=O)[O-])c1 (centres unmarked) [P-093, (4-Fluoro-6-methoxy-3′-nitro-biphenyl-3-yl)-(4-fluoro-phenyl)-methanol] |
| < 5 | < 5 | COc1cc(F)c(Cc2ccc(F)cc2)cc1-c1cccc([N+](=O)[O-])c1 [P-094, 4-Fluoro-5-(4-fluoro-benzyl)-2-methoxy-3′-nitro-biphenyl] |
| < 5 | < 5 | COc1ccc(Cc2ccc(F)cc2)c(O)c1-c1cccc([N+](=O)[O-])c1 [P-099, 3-(4-Fluoro-benzyl)-6-methoxy-3′-nitro-biphenyl-2-ol] |
| < 5 | < 5 | COc1ccc(Cc2c(C)nn(CC(N)=O)c2C)cc1-c1cccc([N+](=O)[O-])c1 [P-101, 2-[4-(6-Methoxy-3′-nitro-biphenyl-3-ylmethyl)-3,5-dimethyl-pyrazol-1-yl]-acetamide] |
| < 5 | < 5 | COc1ccc(Cc2cccc(O)c2)cc1-c1cccc([N+](=O)[O-])c1 [P-102, 3-(6-Methoxy-3′-nitro-biphenyl-3-ylmethyl)-phenol] |
| < 5 | < 5 | COc1ccc(Cc2cccc(CO)c2)cc1-c1cccc([N+](=O)[O-])c1 [P-103, [3-(6-Methoxy-3′-nitro-biphenyl-3-ylmethyl)-phenyl]-methanol] |
| < 5 | < 5 | COc1ccc(Cn2ccccc2=O)cc1-c1cccc([N+](=O)[O-])c1 [P-104, 1-(6-Methoxy-3′-nitro-biphenyl-3-ylmethyl)-1H-pyridin-2-one] |
| < 5 | < 5 | COc1ccc(Cc2ccccc2O)cc1-c1cccc([N+](=O)[O-])c1 [P-105, 2-(6-Methoxy-3′-nitro-biphenyl-3-ylmethyl)-phenol] |
| < 5 | < 5 | COc1ccc(Cc2cccnc2)c(O)c1-c1cccc([N+](=O)[O-])c1 [P-106] |
